{
  "source": "ChEMBL document CHEMBL1144820",
  "about": "“Bipinnatins K-Q, minor cembrane-type diterpenes from the West Indian Gorgonian Pseudopterogorgia kallos: isolation, structure assignment, and evaluation of biological activities” (J Nat Prod, 2008)",
  "key": {"[1]": {"test": "Inhibition of Aplysia californica nicotinic acetylcholine receptor"}, "Plasmodium falciparum": {"tested_on": "Plasmodium falciparum", "test": "Antimicrobial activity against chloroquine-resistant Plasmodium falciparum", "format": "functional, organism-based"}, "[2]": {"tested_on": "Mycobacterium tuberculosis", "test": "Antimicrobial activity against Mycobacterium tuberculosis H37Rv at 128 ug/ml", "format": "functional"}, "CCRF-CEM": {"tested_on": "CCRF-CEM", "test": "Cytotoxicity against human CCRF-CEM cells", "format": "functional"}, "SR": {"tested_on": "SR", "test": "Cytotoxicity against human SR cells", "format": "functional"}, "MOLT-4": {"tested_on": "MOLT-4", "test": "Cytotoxicity against human MOLT4 cells", "format": "functional"}, "RPMI-8226": {"tested_on": "RPMI-8226", "test": "Cytotoxicity against human RPMI8226 cells", "format": "functional"}},
  "data": [
    {"compound": "C=C(C=O)[C@H]1CC2=C(C(=O)OC)C=C(O2)[C@H]2O[C@]2(C)C[C@@H]2OC(=O)[C@]3(O[C@@H]23)[C@H](OC(C)=O)C1", "note": "[BIPINNATIN E]", "values": [
      {"measurement": "IC50", "setting": "[1]", "value": 0.23, "unit": "µM"}
    ]},
    {"compound": "C=C(C(=O)OC)[C@@H]1C[C@@H](OC(C)=O)C2=C[C@H](C[C@@]3(C)O[C@@H]3[C@@]3(O)C=C(C)[C@](O)(O3)[C@H]1OC(C)=O)OC2=O", "note": "[BIPINNATIN M]", "values": [
      {"measurement": "IC50", "setting": "Plasmodium falciparum", "value": "> 10", "unit": "µg/mL"},
      {"measurement": "inhibition at 128 µg/mL", "setting": "[2]", "value": 20, "unit": "%"}
    ]},
    {"compound": "C=C(C)[C@@H]1CCC2=C[C@H](C[C@@]3(C)O[C@@H]3[C@]3(O)C=C(C)C(=O)[C@H]1O3)OC2=O", "note": "[BIPINNATIN N]", "values": [
      {"measurement": "IC50", "setting": "Plasmodium falciparum", "value": "> 10", "unit": "µg/mL"}
    ]},
    {"compound": "C=C(C=O)[C@H]1CC(=O)[C@@H](C(=O)OC)[C@@H]2O[C@@](C)(CC2=O)C[C@@H]2OC(=O)[C@]3(O[C@@H]23)[C@@H](OC(C)=O)C1", "note": "[BIPINNATIN Q]", "values": [
      {"measurement": "GI50", "setting": "CCRF-CEM", "value": 5.8, "unit": "µM"},
      {"measurement": "IC50", "setting": "Plasmodium falciparum", "value": "> 10", "unit": "µg/mL"},
      {"measurement": "GI50", "setting": "SR", "value": 2.6, "unit": "µM"},
      {"measurement": "GI50", "setting": "MOLT-4", "value": 4.2, "unit": "µM"},
      {"measurement": "GI50", "setting": "RPMI-8226", "value": 4.1, "unit": "µM"}
    ]}
  ]
}
